Test results taken from patent US10906906B2, “Organic compounds” (INTRA-CELLULAR THERAPIES, INC., priority 2016, dated 2021).
pIC50: −log10 of the molar value.

Molecular target: μ (MOP) (h) receptor (Homo sapiens, UniProt P35372)
Experiment: Cellular functional assay, μ (MOP) (h) antagonist effect (cAMP, HTRF)
Type: cell-based
Conditions: human recombinant (CHO cells)
Description: The compounds are tested at several concentrations to determine their IC50 or EC50. Cellular agonist effects are calculated as percent of control response to a known reference agonist for each target and cellular antagonist effect is calculated as a percent inhibition of control reference agonist response for each target. The following assay is performed to determine the effect of the Compound of Formula II-B on the μ (MOP) (h) receptor: [table] The results are expressed as a percent of control agonist response: and as a percent inhibition of control agonist response: obtained in the presence of the Compound of Formula II-B or II-C. […] For the antagonists, the apparent dissociation constants (KB) are calculated using the modified Cheng Prusoff equation: [formula] where A=concentration of reference agonist in the assay, and E[…]=EC50 value of the reference agonist.

Sequence of μ (MOP) (h) receptor (P35372 whole entry): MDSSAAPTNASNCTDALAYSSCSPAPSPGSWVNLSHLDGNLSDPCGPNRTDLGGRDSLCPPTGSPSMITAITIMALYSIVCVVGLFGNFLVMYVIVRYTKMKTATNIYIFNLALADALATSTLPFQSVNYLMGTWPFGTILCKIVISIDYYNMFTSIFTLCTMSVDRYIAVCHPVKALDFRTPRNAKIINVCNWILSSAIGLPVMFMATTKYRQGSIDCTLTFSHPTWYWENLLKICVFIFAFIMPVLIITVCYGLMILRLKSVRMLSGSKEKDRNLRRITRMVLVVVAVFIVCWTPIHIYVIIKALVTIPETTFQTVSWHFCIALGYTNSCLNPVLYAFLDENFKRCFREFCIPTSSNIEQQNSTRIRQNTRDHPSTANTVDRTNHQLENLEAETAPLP

| pIC50 (DAMGO (20 nM) stimulus, cAMP, 10 min @ 37° C.) | Kb (modified Cheng Prusoff equation, DAMGO (20 nM), read-out: μ (MOP) (h) (antagonist effect) KB (apparent dissociation constant)) | pIC50 (unit inferred, highest concentration tested, DAMGO (20 nM)) | SMILES |
| --- | --- | --- | --- |
| 5.89 | 0.14 µM | – | CN1C(=O)CN2c3c(cccc31)[C@@H]1CN(CCCc3n[nH]c4cc(F)ccc34)CC[C@@H]12 [Formula II-B] |
| – | – | < 5.00 | Fc1ccc2c(CCCN3CC[C@H]4[C@@H](C3)c3cccc5c3N4CCN5)n[nH]c2c1 [Formula II-C] |
